Measurements from PubChem BioAssay AID330 (DTP/NCI, 2004).
Inconclusive results and toxic doses are left out.

Tested on: P388 leukemia ip, CD2F1 mice, survival T/C
Assay: NCI In Vivo Anticancer Drug Screen. Data for tumor model P388 Leukemia (intraperitoneal) in CD2F1 (CDF1) mice
Conditions: endpoint: median survival time, higher = longer survival
In short: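 Mice carrying the transplanted tumor received test compound or vehicle. Survival was recorded in each group, and the value is the treated-group measurement divided by that of the vehicle-treated control group.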

[1] = dose: 50.0 mg/kg/injection, schedule: Q01DX009 (ip), vehicle: Klucel (hydroxypropylcellulose) (HPC)
[2] = dose: 200.0 mg/kg/injection, schedule: Q01DX009 (ip), vehicle: Klucel (hydroxypropylcellulose) (HPC)
[3] = dose: 50.0 mg/kg/injection, schedule: Q01DX005 (ip), vehicle: Klucel (hydroxypropylcellulose) (HPC)
[4] = dose: 100.0 mg/kg/injection, schedule: Q01DX005 (ip), vehicle: Klucel (hydroxypropylcellulose) (HPC)
[5] = dose: 200.0 mg/kg/injection, schedule: Q01DX005 (ip), vehicle: Klucel (hydroxypropylcellulose) (HPC)
[6] = dose: 50.0 mg/kg/injection, schedule: Q01DX009 (ip), vehicle: saline with Tween-80
[7] = dose: 100.0 mg/kg/injection, schedule: Q01DX009 (ip), vehicle: saline with Tween-80
[8] = dose: 200.0 mg/kg/injection, schedule: Q01DX009 (ip), vehicle: saline with Tween-80

In the case of COc1cc(NS(C)(=O)=O)ccc1Nc1c2ccc([N+](=O)[O-])cc2nc2c(C)c(C)ccc12, the T/C (dose: 0.04 mg/kg/injection, schedule: Q01DX009 (ip), vehicle: saline with Tween-80) is reported as 120 % of control, the T/C (dose: 0.07 mg/kg/injection, schedule: Q01DX009 (ip), vehicle: saline with Tween-80) is reported as 120 % of control and the T/C (dose: 1.13 mg/kg/injection, schedule: Q01DX009 (ip), vehicle: saline with Tween-80) is reported as 157 % of control. The T/C (dose: 6.25 mg/kg/injection, schedule: Q01DX009 (ip), vehicle: saline with Tween-80) was 254 % of control, the T/C (dose: 8.8 mg/kg/injection, schedule: Q04DX003 (ip), vehicle: saline with Tween-80) was 218 % of control and the T/C (dose: 12.5 mg/kg/injection, schedule: Q01DX009 (ip), vehicle: saline with Tween-80) was 291 % of control. For the same molecule, the T/C (dose: 13.2 mg/kg/injection, schedule: Q04DX003 (ip), vehicle: saline with Tween-80) was 209 % of control, the T/C (dose: 20.0 mg/kg/injection, schedule: Q04DX003 (ip), vehicle: saline with Tween-80) was 231 % of control and the T/C (dose: 30.0 mg/kg/injection, schedule: Q04DX003 (ip), vehicle: saline with Tween-80) was 263 % of control.
CC(=O)NS(=O)(=O)c1ccc(N=Nc2c(O)n(-c3ccccc3)n(-c3ccccc3)c2=O)cc1 was tested, and the T/C [1] was 88 % of control, the T/C (dose: 100.0 mg/kg/injection, schedule: Q01DX009 (ip), vehicle: Klucel (hydroxypropylcellulose) (HPC)) was 101 % of control and the T/C [2] was 109 % of control.
CC(=NC1CCCCC1)Nc1ccc(NC(=O)c2ccc(C(=O)Nc3ccc(NC(C)=NC4CCCCC4)cc3)cc2)cc1 was tested, and the T/C (dose: 25.0 mg/kg/injection, schedule: Q01DX005 (ip), vehicle: Klucel (hydroxypropylcellulose) (HPC)) was 98 % of control, the T/C [3] was 104 % of control and the T/C [4] was 98 % of control. For the same molecule, the T/C [5] was 102 % of control.
CCOC(=O)c1ccc(NC(=O)CS)cc1 was tested, and the T/C (dose: 25.0 mg/kg/injection, schedule: Q01DX009 (ip), vehicle: saline with Tween-80) was 98 % of control, the T/C [6] was 99 % of control and the T/C [7] was 102 % of control. For the same molecule, the T/C [8] was 108 % of control.
CN1CCCc2cc(/C=C\c3ccnc4ccccc34)ccc21 was tested, and the T/C (dose: 25.0 mg/kg/injection, schedule: Q01DX009 (ip), vehicle: Klucel (hydroxypropylcellulose) (HPC)) was 93 % of control, the T/C [1] was 104 % of control and the T/C [2] was 118 % of control.
In the case of CSCCC(NC(=O)C(F)(F)F)C(=O)O (configuration not stated), the T/C [6] is reported as 106 % of control, the T/C [7] is reported as 94 % of control and the T/C [8] is reported as 94 % of control.
In the case of NC(CS)C(=O)O (configuration not stated) (tested in a mixture with another compound), the T/C (dose: 3.12 mg/kg/injection, schedule: Q01DX009 (ip), vehicle: suspension in saline) is reported as 90 % of control, the T/C (dose: 6.25 mg/kg/injection, schedule: Q01DX009 (ip), vehicle: suspension in saline) is reported as 107 % of control and the T/C (dose: 12.5 mg/kg/injection, schedule: Q01DX009 (ip), vehicle: suspension in saline) is reported as 110 % of control. For the same molecule, the T/C (dose: 25.0 mg/kg/injection, schedule: Q01DX009 (ip), vehicle: suspension in saline) was 110 % of control.
With [B-]([C+]1CCCCC1)N1C=CC=CC1 the T/C [3] was 100 % of control, the T/C [4] was 98 % of control and the T/C [5] was 97 % of control.
In the case of O=c1n(-c2ccccc2)c2nc3ccccc3nc2n1-c1ccc(Cl)c(Cl)c1, the T/C (dose: 50.0 mg/kg/injection, schedule: Q01DX005 (ip), vehicle: saline with Tween-80) is reported as 90 % of control, the T/C (dose: 100.0 mg/kg/injection, schedule: Q01DX005 (ip), vehicle: saline with Tween-80) is reported as 100 % of control and the T/C (dose: 200.0 mg/kg/injection, schedule: Q01DX005 (ip), vehicle: saline with Tween-80) is reported as 109 % of control.
With CCCCCCCCCCCC[N+]1(CC)CCCCCC1 the T/C (dose: 0.78 mg/kg/injection, schedule: Q01DX009 (ip), vehicle: saline) was 113 % of control, the T/C (dose: 1.56 mg/kg/injection, schedule: Q01DX009 (ip), vehicle: saline) was 111 % of control and the T/C (dose: 3.12 mg/kg/injection, schedule: Q01DX009 (ip), vehicle: saline) was 92 % of control.
With CCC(=O)c1nc(N)[nH]c1CC the T/C (dose: 2.5 mg/kg/injection, schedule: Q01DX005 (ip), vehicle: Klucel (hydroxypropylcellulose) (HPC)) was 101 % of control, the T/C (dose: 5.0 mg/kg/injection, schedule: Q01DX005 (ip), vehicle: Klucel (hydroxypropylcellulose) (HPC)) was 93 % of control and the T/C (dose: 10.0 mg/kg/injection, schedule: Q01DX005 (ip), vehicle: Klucel (hydroxypropylcellulose) (HPC)) was 102 % of control.
